Reference: patent publication US4499104A, “Imidazole compound, the process for its preparation, and therapeutically active compositions containing same” (priority 1976, dated 1985)
“Also recorded” adds a separate entry of the source. Read-outs that look alike come from different tables or passages of the source.

Columns and labels:
[1] = Edema by carrageen (rat paw), antiedematous activity; format: in vivo, Rats of the Wistar-Roux-Ocefa stock
Protocol: A 1% physiological solution of carrageen was used. Rats of the Wistar-Roux-Ocefa stock having a weight of 150±30 g were used. The drugs were suspended in 1% carboxymethylcellulose or dissolved in distilled water and administered orally one hour before the inflammatory agent in a volume of 0.5 ml/100 g. The carrageen was adminstered subcutaneously in the subplanetary region of one of the rear paws. The volume of the paw was measured platysmagraphically initially and then after 1.5 hour, 3 hours and 5 hours after administering the carrageen. One inflammation unit was defined as the displacement of 0.01 ml of Hg.
The edema was evaluated as the difference in volume of the rear paw before and after the carrageen. The DE 50 was calculated by the probits method and graphically. The comparison drugs used were phenylbutazone and niflumic acid.

[2] = Stretching by acetic acid (chemical stimulus), analgesic activity; format: in vivo, mice, Rockland-Roux-Ocefa stock
Protocol: Twelve mice of both sexes, Rockland-Roux-Ocefa stock of weight 23-25 g were used per group. The drugs were administered orally 30 minutes before i.p. injection of 0.1 ml/10 g of 0.6% acetic acid.

[3] = Anticonvulsive activity against strychnine; format: in vivo, Rockland-Ocefa mice; conditions: for Protection from convulsivant strychnine, first value: first of two values; for Protection from convulsivant strychnine, second value: second of two values
Protocol: Rockland-Ocefa mice of both sexes weighing 22±3 g and fasting for 16 hours were used. The convulsive agents were administered i.p. in doses of 2 mg/kg of strychnine sulphate and 110 mg/kg of cardiazole.

Rat [4] = conditions: in vivo
Rat [5] = experiment: Acute toxicity, rat
human = experiment: Human therapy; format: in vivo
Rabbit = experiment: Acute toxicity, rabbit; format: in vivo; conditions: intravenous injection
Protocol: (b) Rabbit: by intravenous injection DL100 =55 mg/kg

Acute toxicity, mouse = conditions: in vivo, read-out: DL50 and L.F.

Structure (SMILES): Cc1[nH]cnc1-c1ccc(Cl)cc1 [Chlorophenazole, 4-(p-chlorophenyl)-5-methylimidazole]
- Δ Volume of the inflamed paw ([1]; 10 mg/kg oral, 1.5 hours): 15 UPI
- Δ Volume of the inflamed paw ([1]; 10 mg/kg oral, 3 hours): 35 UPI
- Δ Volume of the inflamed paw ([1]; 10 mg/kg oral, 5 hours): 58 UPI
- Δ Volume of the inflamed paw ([1]; 20 mg/kg oral, 1.5 hours): 15 UPI
- Δ Volume of the inflamed paw ([1]; 20 mg/kg oral, 3 hours): 29 UPI
- Δ Volume of the inflamed paw ([1]; 20 mg/kg oral, 5 hours): 44 UPI
- Δ Volume of the inflamed paw ([1]; 40 mg/kg oral, 1.5 hours): 15 UPI
- Δ Volume of the inflamed paw ([1]; 40 mg/kg oral, 3 hours): 23 UPI
- Δ Volume of the inflamed paw ([1]; 40 mg/kg oral, 5 hours): 42 UPI
- IT (DL50/DE50) ([1]; DL50/DE50, os): 73.60
- ED50 ([1]; Rattus norvegicus, po, os, probits method and graphically, read-out: DE50 (the source's name)): 7 mg/kg
- antiedematous activity relative to comparison drugs ([1]; oral): more active than phenylbutazone; also recorded: only slightly more active than niflumic acid
- antiinflamatory analgesic activity, overall comparison ([1]; summary of the tests): decidedly better than phenylbutazone, niflumic acid, clonixine or mepyrazole
- % effect ([2]; 21.3 mg/kg oral): 18%
- Number of stretches/20 min. ([2]; 21.3 mg/kg oral): 70 stretches/20 min.
- % effect ([2]; 33.0 mg/kg oral): 42%
- Number of stretches/20 min. ([2]; 33.0 mg/kg oral): 49 stretches/20 min.
- % effect ([2]; 51.0 mg/kg oral): 66%
- Number of stretches/20 min. ([2]; 51.0 mg/kg oral): 29 stretches/20 min.
- analgesic activity ([2]; oral): very good analgesic activity, decidedly better than that of the clonixine (Table 5) and mepyrazole
- Protection from convulsivant strychnine, first value ([3]; 50 mg/kg, 15'): 7.0
- Protection from convulsivant strychnine, second value ([3]; 50 mg/kg, 15'): 7.4
- Protection from convulsivant strychnine, first value ([3]; 50 mg/kg, 30'): 12.8
- Protection from convulsivant strychnine, second value ([3]; 50 mg/kg, 30'): 12.6
- Protection from convulsivant strychnine, first value ([3]; 50 mg/kg, 90'): 8.7
- Protection from convulsivant strychnine, second value ([3]; 50 mg/kg, 90'): 13.8
- Protection from convulsivant strychnine, first value ([3]; 100 mg/kg, 15'): 11.7
- Protection from convulsivant strychnine, second value ([3]; 100 mg/kg, 15'): 19.5
- Protection from convulsivant strychnine, first value ([3]; 100 mg/kg, 30'): 11.3
- Protection from convulsivant strychnine, second value ([3]; 100 mg/kg, 30'): 13.8
- Protection from convulsivant strychnine, first value ([3]; 100 mg/kg, 90'): 9.5
- Protection from convulsivant strychnine, second value ([3]; 100 mg/kg, 90'): 11.5
- Protection from convulsivant strychnine, first value ([3]; 200 mg/kg, 15'): 28.6
- Protection from convulsivant strychnine, second value ([3]; 200 mg/kg, 15'): 18.3
- Protection from convulsivant strychnine, first value ([3]; 200 mg/kg, 30'): 12.8
- Protection from convulsivant strychnine, second value ([3]; 200 mg/kg, 30'): 16.0
- Protection from convulsivant strychnine, first value ([3]; 200 mg/kg, 90'): 18.2
- Protection from convulsivant strychnine, second value ([3]; 200 mg/kg, 90'): 21.0
- toxicity relative to niflumic acid (Rat [4]): much less toxic than the latter
- symptoms preceding death (Rat [5]; rat and mouse, acute toxicity): reduction in spontaneous motility, sedation, hypotherma, paralysis
- acute toxicity values and therapeutic index relative to phenylbutazone (Rat [5]; summary): well in excess of those for phenylbutazone
- pharmacological results in human therapy (human): fully confirmed in human therapy
- DL100 (Rabbit): 55 mg/kg
- final framework (symptoms) (Rabbit): marked muscular hypotonia, an almost catatonic state and death by respiratory paralysis
- LD50 (Acute toxicity, mouse; ip): 175 mg/kg
- LD50 (Acute toxicity, mouse; po, os): 534 mg/kg
